Assay results from PMC11003488 (Journal of Enzyme Inhibition and Medicinal Chemistry, 2023).
Values joined by “and” are separate entries in the source; they are usually repeats but may differ in a detail not shown here. Equal entries are not always repeated. Where two headings read alike, the source gives them in different places.

Columns and labels:
Caspase-3 [1] = assay: Protein level by ELISA assay in HCT-116; format: cell-based, human; conditions: HCT-116, IC50 of compound, 24 h, vs 0.1% DMSO
SK-OV-3 = assay: NCI-60 SRB growth inhibition, one-dose and five-dose; format: cell-based; conditions: Homo sapiens
OVCAR-5 = assay: as above; format: cell-based; conditions: Homo sapiens
Bax [2] = assay: Gene expression by RT-qPCR in HCT-116; conditions: HCT-116, 24 h
[3] = test system: Prostate cancer cell lines; assay: NCI-60 SRB growth inhibition, subpanel; format: cell-based, human; conditions: for GI50: Homo sapiens
UO-31 = assay: NCI-60 SRB growth inhibition, one-dose and five-dose; format: cell-based; conditions: Homo sapiens, UO-31
MDA-MB-231/ATCC = assay: as above; format: cell-based; conditions: Homo sapiens, MDA-MB-231
Melanoma cell lines = assay: NCI-60 SRB growth inhibition, subpanel; format: cell-based, human; conditions: for GI50: Homo sapiens
UACC-62 = assay: NCI-60 SRB growth inhibition, one-dose and five-dose; format: cell-based; conditions: Homo sapiens
NSCLC cell lines = assay: NCI-60 SRB growth inhibition, subpanel; format: cell-based, human; conditions: for GI50: Homo sapiens
Bax [4] = assay: Protein level by ELISA assay in HCT-116; format: cell-based, human; conditions: HCT-116, IC50 of compound, 24 h, vs 0.1% DMSO
Colon cancer cell lines = assay: NCI-60 SRB growth inhibition, subpanel; format: cell-based, human; conditions: for GI50: Homo sapiens
HCT-116 (colon cancer) [5] = assay: Apoptosis AV/PI assay by flow cytometry; format: cell-based, human; conditions: HCT-116, 24 h, IC50 of compound
CNS cancer cell lines = assay: NCI-60 SRB growth inhibition, subpanel; format: cell-based, human; conditions: for GI50: Homo sapiens
[6] = test system: Ovarian cancer cell lines; assay: NCI-60 SRB growth inhibition, subpanel; format: cell-based, human; conditions: for GI50: Homo sapiens
NCI-H460 = assay: NCI-60 SRB growth inhibition, one-dose and five-dose; format: cell-based; conditions: Homo sapiens
[7] = test system: WI-38 normal human fibroblast cells; assay: Cytotoxicity towards normal fibroblasts, safety index; format: cell-based; conditions: WI-38 versus cancer cell lines
[8] = as above; format: cell-based, human; conditions: human, WI-38 normal fibroblast cells
DU-145 = assay: NCI-60 SRB growth inhibition, one-dose and five-dose; format: cell-based; conditions: Homo sapiens
HOP-62 = assay: as above; format: cell-based; conditions: Homo sapiens
Human VEGFR-2 = Human VEGFR-2 (Homo sapiens, UniProt P35968); assay: VEGFR-2 inhibition assay; format: biochemical
Caspase-3 [9] = assay: Gene expression by RT-qPCR in HCT-116; conditions: HCT-116, 24 h, IC50 of compound; vs 0.1% DMSO; 2^-ΔΔct
Leukaemia cell lines = assay: NCI-60 SRB growth inhibition, subpanel; format: cell-based, human; conditions: Homo sapiens
SF-295 = assay: NCI-60 SRB growth inhibition, one-dose and five-dose; format: cell-based; conditions: Homo sapiens
Renal cancer cell lines = assay: NCI-60 SRB growth inhibition, subpanel; format: cell-based, human; conditions: for GI50: Homo sapiens
SF-539 = assay: NCI-60 SRB growth inhibition, one-dose and five-dose; format: cell-based; conditions: Homo sapiens
Breast cancer cell lines = assay: NCI-60 SRB growth inhibition, subpanel; format: cell-based, human; conditions: for GI50: Homo sapiens
[10] = test system: NCI 60-cell line panel (full panel); assay: NCI-60 SRB growth inhibition, full panel mean / MG-MID; format: cell-based, human; conditions: for GI50: Homo sapiens, 60 cell
A549/ATCC = assay: NCI-60 SRB growth inhibition, one-dose and five-dose; format: cell-based; conditions: Homo sapiens
TNF-α = assay: Gene expression by RT-qPCR in HCT-116; conditions: HCT-116, 24 h, IC50 of compound; vs 0.1% DMSO; 2^-ΔΔct
TK-10 = assay: NCI-60 SRB growth inhibition, one-dose and five-dose; format: cell-based; conditions: Homo sapiens
BT-549 = assay: as above; format: cell-based; conditions: Homo sapiens
SW-620 = assay: as above; format: cell-based; conditions: Homo sapiens
HOP-92 = assay: as above; format: cell-based; conditions: Homo sapiens
HCT-116 = assay: as above; format: cell-based; conditions: Homo sapiens
HCT-116 (colon cancer) [11] = assay: Cell cycle analysis by PI flow cytometry; format: cell-based, human; conditions: HCT-116, 24 h, IC50 of compound
SK-MEL-5 = assay: NCI-60 SRB growth inhibition, one-dose and five-dose; format: cell-based; conditions: Homo sapiens

Sequence of Human VEGFR-2 (P35968 20-1356): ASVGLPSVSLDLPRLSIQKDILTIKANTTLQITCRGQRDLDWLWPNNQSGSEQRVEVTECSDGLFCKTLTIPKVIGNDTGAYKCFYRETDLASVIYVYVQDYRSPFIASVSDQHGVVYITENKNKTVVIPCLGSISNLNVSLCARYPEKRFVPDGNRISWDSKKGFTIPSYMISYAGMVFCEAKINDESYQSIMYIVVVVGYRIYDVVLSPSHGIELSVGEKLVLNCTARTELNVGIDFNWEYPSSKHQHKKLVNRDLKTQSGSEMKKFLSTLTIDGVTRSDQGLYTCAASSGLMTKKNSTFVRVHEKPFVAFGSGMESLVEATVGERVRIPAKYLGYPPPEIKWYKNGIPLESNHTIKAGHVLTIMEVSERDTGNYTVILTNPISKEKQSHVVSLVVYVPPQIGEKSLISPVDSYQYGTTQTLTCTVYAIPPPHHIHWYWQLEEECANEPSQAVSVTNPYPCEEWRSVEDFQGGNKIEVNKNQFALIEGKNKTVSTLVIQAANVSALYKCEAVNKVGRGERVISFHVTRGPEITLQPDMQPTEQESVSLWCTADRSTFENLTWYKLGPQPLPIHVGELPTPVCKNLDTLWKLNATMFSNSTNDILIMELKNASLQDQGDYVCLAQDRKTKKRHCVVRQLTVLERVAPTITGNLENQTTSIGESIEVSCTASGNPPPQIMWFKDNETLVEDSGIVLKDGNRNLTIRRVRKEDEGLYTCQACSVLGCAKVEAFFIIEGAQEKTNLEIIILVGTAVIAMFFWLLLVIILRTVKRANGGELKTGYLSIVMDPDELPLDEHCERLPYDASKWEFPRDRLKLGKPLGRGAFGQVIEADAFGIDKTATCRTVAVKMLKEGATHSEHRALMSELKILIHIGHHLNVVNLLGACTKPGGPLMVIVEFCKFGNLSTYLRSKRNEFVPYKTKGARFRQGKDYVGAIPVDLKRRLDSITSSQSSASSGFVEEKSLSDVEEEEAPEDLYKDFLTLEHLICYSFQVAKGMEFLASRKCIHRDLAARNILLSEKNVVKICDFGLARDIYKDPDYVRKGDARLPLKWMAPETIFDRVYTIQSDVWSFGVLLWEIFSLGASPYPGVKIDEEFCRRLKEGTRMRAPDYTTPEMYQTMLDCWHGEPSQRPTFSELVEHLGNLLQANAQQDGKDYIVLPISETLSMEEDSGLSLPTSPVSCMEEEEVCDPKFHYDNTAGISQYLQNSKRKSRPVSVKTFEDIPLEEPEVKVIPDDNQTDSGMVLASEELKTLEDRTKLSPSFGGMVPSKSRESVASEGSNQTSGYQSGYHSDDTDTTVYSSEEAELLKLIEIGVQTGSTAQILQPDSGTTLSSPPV

O=C(/C=C/c1cccnc1)c1cccc(NCc2ccc(CO)cc2)c1 [Compound 5e, (E)-1–(3-((4-(hydroxymethyl)benzyl)amino)phenyl)-3-(pyridin-3-yl)prop-2-en-1-one]
caspase-3 protein level (Caspase-3 [1]): 58.44 fold | GI50 (SK-OV-3; SK-OV-3): 15.8 µM | inhibition at 10 µM (SK-OV-3; SK-OV-3, read-out: percent growth inhibition): 0.04% | GI50 (OVCAR-5; OVCAR-5): 14.6 µM | inhibition at 10 µM (OVCAR-5; OVCAR-5, read-out: percent growth inhibition): 32.6% | Bax gene expression fold change (Bax [2]; IC50 of compound, vs 0.1% DMSO, 2^-ΔΔct): 5 fold and 5.00 ± 1.1 fold | Bax/Bcl-2 ratio (Bax [2]; ratio of gene expression fold changes): 4.5 | GI50 ([3]; read-out: GI50 MG-MID): 12.2 µM | GI50 ([3]; read-out: MG-MID GI50): 12.2 µM | SI (Selectivity Index) ([3]; full panel MG-MID / Prostatic Cancer subpanel MG-MID): 0.82 | GI50 (UO-31): 11.2 µM | GI50 (MDA-MB-231/ATCC): 3.75 µM | GI50 (Melanoma cell lines; read-out: GI50 MG-MID): 10.6 µM | GI50 (Melanoma cell lines; read-out: MG-MID GI50): 10.6 µM | SI (Selectivity Index) (Melanoma cell lines; full panel MG-MID / Melanoma subpanel MG-MID): 0.94 | GI50 (UACC-62; UACC-62): 11.3 µM | inhibition at 10 µM (UACC-62; UACC-62, read-out: percent growth inhibition): 59.8% | GI50 (NSCLC cell lines; read-out: GI50 MG-MID): 13.6 µM | GI50 (NSCLC cell lines; read-out: MG-MID GI50): 13.6 µM | SI (Selectivity Index) (NSCLC cell lines; full panel MG-MID / NSCLC subpanel MG-MID): 0.73 | Bax protein level (Bax [4]): 3.14 fold | GI50 (Colon cancer cell lines; read-out: GI50 MG-MID): 6.42 µM | GI50 (Colon cancer cell lines; read-out: MG-MID GI50): 6.42 µM | SI (Selectivity Index) (Colon cancer cell lines; full panel MG-MID / Colon Cancer subpanel MG-MID): 1.55 | % Early apoptotic cells (LR) (HCT-116 (colon cancer) [5]): 0.05 ± 0.001% | % Late apoptotic cells (UL) (HCT-116 (colon cancer) [5]): 94.74 ± 8.9% | % Necrotic cells (UR) (HCT-116 (colon cancer) [5]): 2.71 ± 0.33% | % Viable cells (LL) (HCT-116 (colon cancer) [5]): 2.50 ± 0.12% | GI50 (CNS cancer cell lines; read-out: GI50 MG-MID): 12.2 µM | GI50 (CNS cancer cell lines; read-out: MG-MID GI50): 12.2 µM | SI (Selectivity Index) (CNS cancer cell lines; full panel MG-MID / CNS Cancer subpanel MG-MID): 0.82 | GI50 ([6]; read-out: GI50 MG-MID): 11.2 µM | GI50 ([6]; read-out: MG-MID GI50): 11.2 µM | SI (Selectivity Index) ([6]; full panel MG-MID / Ovarian Cancer subpanel MG-MID): 0.89 | GI50 (NCI-H460; NCI-H460): 14 µM | inhibition at 10 µM (NCI-H460; NCI-H460, read-out: percent growth inhibition): 64.7% | Safety index [7]: >1 | GI50 at 48 h [8]: > 100 µM | GI50 (DU-145; DU-145): 12.8 µM | inhibition at 10 µM (DU-145; DU-145, read-out: percent growth inhibition): 55% | GI50 (HOP-62; HOP-62): 15 µM | inhibition at 10 µM (HOP-62; HOP-62, read-out: percent growth inhibition): 20.7% | IC50 (Human VEGFR-2): 0.37 ± 0.012 µM | Caspase-3 gene expression fold change (Caspase-3 [9]): 2.28 ± 0.14 fold | GI50 (Leukaemia cell lines; read-out: GI50 MG-MID): 3.29 µM | GI50 (Leukaemia cell lines; read-out: MG-MID GI50): 3.29 µM | GI50 (SF-295; SF-295): 14.5 µM | inhibition at 10 µM (SF-295; SF-295, read-out: percent growth inhibition): 39.8% | GI50 (Renal cancer cell lines; read-out: GI50 MG-MID): 13 µM | GI50 (Renal cancer cell lines; read-out: MG-MID GI50): 13 µM | SI (Selectivity Index) (Renal cancer cell lines; full panel MG-MID / Renal Cancer subpanel MG-MID): 0.77 | GI50 (SF-539; SF-539): 14.5 µM | inhibition at 10 µM (SF-539; SF-539, read-out: percent growth inhibition): 98.5% | GI50 (Breast cancer cell lines; read-out: GI50 MG-MID): 7.2 µM | GI50 (Breast cancer cell lines; read-out: MG-MID GI50): 7.2 µM | SI (Selectivity Index) (Breast cancer cell lines; full panel MG-MID / Breast Cancer subpanel MG-MID): 1.38 | GI50 ([10]; read-out: Full panel GI50 mean): 9.96 µM | GI50 ([10]; read-out: Full panel MG-MID GI50): 9.96 µM | Full panel Mean GI % ([10]; mean over NCI-60 panel, single dose 10 µM): 86.06% | GI50 (A549/ATCC; A549): 16.9 µM | inhibition at 10 µM (A549/ATCC; A549, read-out: percent growth inhibition): 16.4% | TNF-α gene expression fold change (TNF-α): 372 fold and 372.22 ± 10.8 fold | GI50 (TK-10; TK-10): 15 µM | inhibition at 10 µM (TK-10; TK-10, read-out: percent growth inhibition): 30.6% | GI50 (BT-549; BT-549): 6.12 µM | inhibition at 10 µM (BT-549; BT-549, read-out: percent growth inhibition): 98.1% | GI50 (SW-620; SW-620): 2.06 µM | inhibition at 10 µM (SW-620; SW-620, read-out: percent growth inhibition): 140% | GI50 (HOP-92; HOP-92): 12.5 µM | inhibition at 10 µM (HOP-92; HOP-92, read-out: percent growth inhibition): 23.3% | GI50 (HCT-116; HCT-116, HCT-116, five-dose screening): 1.88 µM | inhibition at 10 µM (HCT-116; HCT-116, read-out: percent growth inhibition): 193% | % G0-G1 (HCT-116 (colon cancer) [11]): 30.02 ± 7.1% | % G2M (HCT-116 (colon cancer) [11]): 10.42 ± 1.7% | % S (HCT-116 (colon cancer) [11]): 10.55 ± 3.5% | % SubG0-G1 (HCT-116 (colon cancer) [11]): 49.01 ± 7.2% | GI50 (SK-MEL-5; SK-MEL-5): 12.5 µM | inhibition at 10 µM (SK-MEL-5; SK-MEL-5, read-out: percent growth inhibition): 85.7%
